Data: ChEMBL document CHEMBL3885861, “Open TG-GATES”

Species: Rattus norvegicus
Assay: Open TG-GATES - Regimen: Single
Assay type: toxicity, organism-based, Sprague-Dawley
Design: regimen Single, gender Male, age 6 weeks
Details: in vivo, po, route gavage; for TC / TP / gamma-GTP / ALP / ALT / AST / CRE / DBIL / GLC / IP / K / LDH / Na / PL / RALB / TBIL / TG: tissue Plasma; for APTT / Bas / Eos / Fbg / Ht / Lym / MCH / MCHC / MCV / Mono / Neu / PT / RBC / Ret / WBC / Hb / Plat: tissue Blood; for KIDNEY_L / KIDNEY_R / KIDNEY_TOTAL: tissue Kidney; for LIVER: tissue Liver
[1] = 0 mg/kg, 24 h, dose level Control

Structure (SMILES): CC(C)Cc1ccc(C(C)C(=O)O)cc1 (centres undefined) [IBUPROFEN]
- TC [1]: 79.4 mg/dL
- TP [1]: 5.5 g/dL
- gamma-GTP [1]: 1.2 IU/L
- TERMINAL_BW (60 mg/kg, 3 h, dose level Low): 204.2 g
- APTT (60 mg/kg, 3 h, dose level Low): 21.7 s
- Bas (60 mg/kg, 3 h, dose level Low): 0%
- Eos (60 mg/kg, 3 h, dose level Low): 0%
- Fbg (60 mg/kg, 3 h, dose level Low): 294.6 mg/dL
- Ht (60 mg/kg, 3 h, dose level Low): 39.3%
- Lym (60 mg/kg, 3 h, dose level Low): 73.8%
- MCH (60 mg/kg, 3 h, dose level Low): 21.4 pg
- MCHC (60 mg/kg, 3 h, dose level Low): 33.7%
- MCV (60 mg/kg, 3 h, dose level Low): 63.8 fL
- Mono (60 mg/kg, 3 h, dose level Low): 2.2%
- Neu (60 mg/kg, 3 h, dose level Low): 22.6%
- PT (60 mg/kg, 3 h, dose level Low): 15.3 s
- RBC (60 mg/kg, 3 h, dose level Low): 618.2 x10_4/ul
- Ret (60 mg/kg, 3 h, dose level Low): 7.9%
- WBC (60 mg/kg, 3 h, dose level Low): 101.5 x10_2/uL
- KIDNEY_L (60 mg/kg, 3 h, dose level Low): 0.9 g
- KIDNEY_R (60 mg/kg, 3 h, dose level Low): 0.9 g
- KIDNEY_TOTAL (60 mg/kg, 3 h, dose level Low): 1.7 g
- LIVER (60 mg/kg, 3 h, dose level Low): 9.2 g
- ALP (60 mg/kg, 3 h, dose level Low): 1434.6 IU/L
- ALT (60 mg/kg, 3 h, dose level Low): 47.8 IU/L
- AST (60 mg/kg, 3 h, dose level Low): 79.4 IU/L
- CRE (60 mg/kg, 3 h, dose level Low): 0.2 mg/dL
- DBIL (60 mg/kg, 3 h, dose level Low): 0.002 mg/dL
- GLC (60 mg/kg, 3 h, dose level Low): 177 mg/dL
- IP (60 mg/kg, 3 h, dose level Low): 8.4 mg/dL
- K (60 mg/kg, 3 h, dose level Low): 4.1 meq/L
- LDH (60 mg/kg, 3 h, dose level Low): 256 IU/L
- Na (60 mg/kg, 3 h, dose level Low): 141.2 meq/L
- PL (60 mg/kg, 3 h, dose level Low): 144.8 mg/dL
- RALB (60 mg/kg, 3 h, dose level Low): 3 g/dL
- TBIL (60 mg/kg, 3 h, dose level Low): 0.028 mg/dL
- TC (60 mg/kg, 3 h, dose level Low): 85.2 mg/dL
- TG (60 mg/kg, 3 h, dose level Low): 64.2 mg/dL
- TP (60 mg/kg, 3 h, dose level Low): 5.4 g/dL
- gamma-GTP (60 mg/kg, 3 h, dose level Low): 1.4 IU/L
- TERMINAL_BW (60 mg/kg, 6 h, dose level Low): 205.3 g
- APTT (60 mg/kg, 6 h, dose level Low): 23.2 s
- Bas (60 mg/kg, 6 h, dose level Low): 0%
- Eos (60 mg/kg, 6 h, dose level Low): 1%
- Fbg (60 mg/kg, 6 h, dose level Low): 292.4 mg/dL
- Hb (60 mg/kg, 6 h, dose level Low): 13.4 g/dL
- Ht (60 mg/kg, 6 h, dose level Low): 39.3%
- Lym (60 mg/kg, 6 h, dose level Low): 72.2%
- MCH (60 mg/kg, 6 h, dose level Low): 21.6 pg
- MCHC (60 mg/kg, 6 h, dose level Low): 34%
- MCV (60 mg/kg, 6 h, dose level Low): 63.5 fL
- Mono (60 mg/kg, 6 h, dose level Low): 2.6%
- PT (60 mg/kg, 6 h, dose level Low): 16 s
- Plat (60 mg/kg, 6 h, dose level Low): 116.1 x10_4/uL
- RBC (60 mg/kg, 6 h, dose level Low): 619.4 x10_4/ul
- Ret (60 mg/kg, 6 h, dose level Low): 8%
- WBC (60 mg/kg, 6 h, dose level Low): 76.4 x10_2/uL
- KIDNEY_L (60 mg/kg, 6 h, dose level Low): 0.9 g
- KIDNEY_R (60 mg/kg, 6 h, dose level Low): 1 g
- KIDNEY_TOTAL (60 mg/kg, 6 h, dose level Low): 1.9 g
- LIVER (60 mg/kg, 6 h, dose level Low): 8.8 g
- ALP (60 mg/kg, 6 h, dose level Low): 1432.6 IU/L
- ALT (60 mg/kg, 6 h, dose level Low): 45 IU/L
- AST (60 mg/kg, 6 h, dose level Low): 79.6 IU/L
- CRE (60 mg/kg, 6 h, dose level Low): 0.1 mg/dL
- DBIL (60 mg/kg, 6 h, dose level Low): 0.004 mg/dL
- GLC (60 mg/kg, 6 h, dose level Low): 174.8 mg/dL
- IP (60 mg/kg, 6 h, dose level Low): 9.6 mg/dL
- K (60 mg/kg, 6 h, dose level Low): 4.5 meq/L
- LDH (60 mg/kg, 6 h, dose level Low): 256.6 IU/L
- Na (60 mg/kg, 6 h, dose level Low): 140 meq/L
- PL (60 mg/kg, 6 h, dose level Low): 130.4 mg/dL
- RALB (60 mg/kg, 6 h, dose level Low): 2.9 g/dL
- TBIL (60 mg/kg, 6 h, dose level Low): 0.032 mg/dL
- TC (60 mg/kg, 6 h, dose level Low): 72.6 mg/dL
- TG (60 mg/kg, 6 h, dose level Low): 56 mg/dL
- TP (60 mg/kg, 6 h, dose level Low): 5.1 g/dL
- gamma-GTP (60 mg/kg, 6 h, dose level Low): 1.2 IU/L
- TERMINAL_BW (60 mg/kg, 9 h, dose level Low): 199.8 g
- Bas (60 mg/kg, 9 h, dose level Low): 0%
- Eos (60 mg/kg, 9 h, dose level Low): 0.6%
- Fbg (60 mg/kg, 9 h, dose level Low): 275 mg/dL
- Hb (60 mg/kg, 9 h, dose level Low): 12.8 g/dL
- Ht (60 mg/kg, 9 h, dose level Low): 38.1%
- Lym (60 mg/kg, 9 h, dose level Low): 76.6%
- MCH (60 mg/kg, 9 h, dose level Low): 21.5 pg
- MCHC (60 mg/kg, 9 h, dose level Low): 33.6%
- MCV (60 mg/kg, 9 h, dose level Low): 64.1 fL
- Mono (60 mg/kg, 9 h, dose level Low): 2.6%
- Neu (60 mg/kg, 9 h, dose level Low): 19.2%
- PT (60 mg/kg, 9 h, dose level Low): 15.8 s
- Plat (60 mg/kg, 9 h, dose level Low): 116.8 x10_4/uL
- RBC (60 mg/kg, 9 h, dose level Low): 594.6 x10_4/ul
- Ret (60 mg/kg, 9 h, dose level Low): 8.2%
- WBC (60 mg/kg, 9 h, dose level Low): 66.8 x10_2/uL
- KIDNEY_L (60 mg/kg, 9 h, dose level Low): 1 g
- KIDNEY_R (60 mg/kg, 9 h, dose level Low): 1 g
- KIDNEY_TOTAL (60 mg/kg, 9 h, dose level Low): 1.9 g
- LIVER (60 mg/kg, 9 h, dose level Low): 8.2 g
- ALP (60 mg/kg, 9 h, dose level Low): 1788.8 IU/L
- ALT (60 mg/kg, 9 h, dose level Low): 40.8 IU/L
- AST (60 mg/kg, 9 h, dose level Low): 72.4 IU/L
- CRE (60 mg/kg, 9 h, dose level Low): 0.1 mg/dL
- DBIL (60 mg/kg, 9 h, dose level Low): 0.006 mg/dL
- GLC (60 mg/kg, 9 h, dose level Low): 174.8 mg/dL
- K (60 mg/kg, 9 h, dose level Low): 4.4 meq/L
- LDH (60 mg/kg, 9 h, dose level Low): 208.4 IU/L
- Na (60 mg/kg, 9 h, dose level Low): 139.8 meq/L
- RALB (60 mg/kg, 9 h, dose level Low): 2.9 g/dL
- TBIL (60 mg/kg, 9 h, dose level Low): 0.026 mg/dL
- TC (60 mg/kg, 9 h, dose level Low): 67 mg/dL
- TG (60 mg/kg, 9 h, dose level Low): 58.6 mg/dL
- TP (60 mg/kg, 9 h, dose level Low): 5.3 g/dL
- gamma-GTP (60 mg/kg, 9 h, dose level Low): 1 IU/L
- TERMINAL_BW (60 mg/kg, 24 h, dose level Low): 206.8 g
- APTT (60 mg/kg, 24 h, dose level Low): 21.7 s
- Bas (60 mg/kg, 24 h, dose level Low): 0%
- Eos (60 mg/kg, 24 h, dose level Low): 1%
- Fbg (60 mg/kg, 24 h, dose level Low): 309.8 mg/dL
- Ht (60 mg/kg, 24 h, dose level Low): 40.6%
- Lym (60 mg/kg, 24 h, dose level Low): 78.2%
- MCH (60 mg/kg, 24 h, dose level Low): 21.6 pg
- MCHC (60 mg/kg, 24 h, dose level Low): 34.1%
- MCV (60 mg/kg, 24 h, dose level Low): 63.2 fL
- Mono (60 mg/kg, 24 h, dose level Low): 3.2%
- Neu (60 mg/kg, 24 h, dose level Low): 17%
- PT (60 mg/kg, 24 h, dose level Low): 16.5 s
- Plat (60 mg/kg, 24 h, dose level Low): 112 x10_4/uL
- RBC (60 mg/kg, 24 h, dose level Low): 643.6 x10_4/ul
- Ret (60 mg/kg, 24 h, dose level Low): 6.8%
- WBC (60 mg/kg, 24 h, dose level Low): 119.2 x10_2/uL
- KIDNEY_L (60 mg/kg, 24 h, dose level Low): 0.9 g
- KIDNEY_R (60 mg/kg, 24 h, dose level Low): 0.9 g
- KIDNEY_TOTAL (60 mg/kg, 24 h, dose level Low): 1.8 g
- LIVER (60 mg/kg, 24 h, dose level Low): 9.8 g
- ALP (60 mg/kg, 24 h, dose level Low): 1457.4 IU/L
- ALT (60 mg/kg, 24 h, dose level Low): 46.6 IU/L
- AST (60 mg/kg, 24 h, dose level Low): 76.8 IU/L
- CRE (60 mg/kg, 24 h, dose level Low): 0.2 mg/dL
- DBIL (60 mg/kg, 24 h, dose level Low): 0 mg/dL
- GLC (60 mg/kg, 24 h, dose level Low): 183.6 mg/dL
- IP (60 mg/kg, 24 h, dose level Low): 7.7 mg/dL
- K (60 mg/kg, 24 h, dose level Low): 4.5 meq/L
- LDH (60 mg/kg, 24 h, dose level Low): 274 IU/L
- Na (60 mg/kg, 24 h, dose level Low): 141.6 meq/L
- PL (60 mg/kg, 24 h, dose level Low): 142.2 mg/dL
- RALB (60 mg/kg, 24 h, dose level Low): 3 g/dL
- TBIL (60 mg/kg, 24 h, dose level Low): 0.004 mg/dL
- TC (60 mg/kg, 24 h, dose level Low): 76.6 mg/dL
